The results in this text go back to patent US10584115B2, “Substituted pyridine and pyrazine BMI-1 inhibitors” (PTC Therapeutics, Inc., priority 2013, dated 2020).

Each structure is given as a SMILES string.

The first assay has as its system Bmi-1 protein. Put plainly: Sandwich ELISA Assay (Bmi-1 protein level in HT-1080 cells after compound treatment). It counts as cell-based. Conditions: Table 1, Bmi-1 sandwich ELISA, read-out: ELISA EC50 value for Bmi-1 protein. The procedure:
Cell Seeding and Compound Treatment (Day 1):
HT-1080 cells were seeded at 8000 cells/well (50 μL) in 96-well tissue culture plates. After the cells became adherent (3-4 hours), 2× diluted stocks of test compounds in 50 μL DMEM containing 1% DMSO (final DMSO concentration was 0.5%) were added and the plates were incubated at 37° C. under 5% CO2 for 40-48 hours.
ELISA Plate First Antibody Preparation (Day 2):
The First Antibody (Millipore Mouse, monoclonal to mouse Bmi-1, clone F6, catalog #05-637) diluted to […] in PBS was added (100 μL) to each well of a Nunc MaxiSorp 96-well ELISA plate. The plate was covered with a plate seal and allowed to stand overnight.
Cell Lysate Preparation (Day 3):
Fresh Lysis buffer (1×) was prepared on the day of the assay as follows: 1 mM EDTA, 150 mM NaCl, 0.5% Triton-X 100, 10 mM NaF, 20 mM B-Glycerophosphate, 1 mM DTT (in PBS, pH 7.2-7.4) and HALT protease inhibitor cocktail (lx) (Pierce #78410).
A standard curve was prepared at the following Bmi-1 concentrations: 8000, 4000, 2000, 1000, 500, 250, 125 and 0 pg/mL. The Bmi-1 Recombinant Protein Standard (Novus Biologicals PCGF4 Recombinant Protein (P01), catalog # H00000648-P01) used to prepare the standard curve was stored at −80° C. On first thaw, the Recombinant Protein Standard was diluted to 10 μg/L in Blocking Buffer (1% BSA in PBS; BSA: Fisher Scientific Catalog #1600-100). Aliquots were taken and refrozen at −80° C. The aliquots may be kept at 4° C. and reused after first thaw, but only within 1-2 weeks. The Recombinant Protein Standard contains a GST-fusion tag that appears at approximately 70 Kda on Western Blot.
The prepared ELISA plate was washed 3× with Wash Buffer (0.05% Tween-20 in PBS). The final wash was removed from the plate and the plate was blotted dry. Blocking Buffer (300 μL) (1% BSA in PBS) was added to each well. The plate was covered with a plate seal and incubated at room temperature for 1 hour. The blocked plate was washed 3× with Wash Buffer, then the final wash was removed and the plate was blotted dry. The previously prepared samples and standards were added ([…]) and the plate was covered with a plate seal and incubated at 4° C. overnight.
The prepared ELISA plate was removed from incubation and allowed to stand at room temperature for 30 minutes, then washed and blotted dry. The Second Antibody (Cell Signaling Rabbit anti-Bmi-1, Cat #2830) diluted to 1:600 in Blocking Buffer was added (100 μL) to each well, except as needed for background control wells. The plate was covered with a plate seal and incubated for 1.5 hrs at room temperature.
The ELISA plate was washed and blotted dry as previously described. The Third Antibody (Cell Signaling HRP conjugated anti-rabbit IgG (CellSignaling, Cat #:7074) diluted to 1:300 in Blocking Buffer was added (100 μL) to each well, except as needed for background control wells. The plate was incubated for 1 hr at room temperature.
The plate was washed and blotted dry, then a previously prepared TMB substrate (TMB substrate kit, Pierce catalog #34021) (prepared by mixing kit reagents 1:1) (100 μL) was added per well. The plate was incubated for 20-30 minutes at room temperature in the dark, then Stop Solution (2 M sulfuric acid in water) (50 μL) was added per well. The plates were read at OD450 (experimental) and OD570 (reference).
(ELISA stands for enzyme-linked immunosorbent assay.)
On to `CCc1nc2c(n1-c1cncc(Nc3ccc(C(F)(F)F)cc3)n1)CN(C)CC2` [compound 398, 6-(2-ethyl-5-methyl-4,5,6,7-tetrahydro-3H-imidazo[4,5-c]pyridin-3-yl)-N-[4-(trifluoromethyl)phenyl]pyrazin-2-amine], for which the half-maximal effective concentration (EC50) (usually the concentration at which the effect is half-maximal) was 0.1 to 3 µM.
Same read-out and setting: the figure for `Cc1nc2ccccc2n1-c1cncc(NC2Cc3ccccc3C2)n1` [compound 424, N-(2,3-dihydro-1H-inden-2-yl)-6-(2-methyl-1H-benzimidazol-1-yl)pyrazin-2-amine] is 0.1 to 3 µM.
On the same count and under the same terms, the figure for `Cc1nc2cc(F)c(F)cc2n1-c1cc(C#N)cc(Nc2ccc(OC(F)F)c(F)c2)n1` [compound 326, 2-{[4-(difluoromethoxy)-3-fluorophenyl]amino}-6-(5,6-difluoro-2-methyl-1H-benzimidazol-1-yl)pyridine-4-carbonitrile] is 0.01 to 0.1 µM; for `OCc1nc2ccc(F)cn2c1-c1cncc(Nc2ccc(C(F)(F)F)cc2)n1` [compound 328, [6-fluoro-3-(6-{[4-(trifluoromethyl)phenyl]amino}pyrazin-2-yl)imidazo[1,2-a]pyridin-2-yl]methanol] it is 0.001 to 0.01 µM; for `Cc1nc2ccc(NCc3ccccc3)cc2n1-c1cncc(Nc2ccc(C(F)(F)F)cc2)n1` [compound 275, N-benzyl-2-methyl-1-(6-{[4-(trifluoromethyl)phenyl]amino}pyrazin-2-yl)-1H-benzimidazol-6-amine] it is 0.01 to 0.1 µM.
Same read-out and setting: for `COc1ccc(Nc2cncc(-n3c(C)cc4ccccc43)n2)cc1` [compound 164, N-(4-methoxyphenyl)-6-(2-methyl-1H-indol-1-yl)pyrazin-2-amine] the value was 0.01 to 0.1 µM.
`Cc1nc2ncc(Cl)cc2n1-c1cc(C#N)cc(Nc2ccc(C(F)(F)F)cc2)n1` [compound 419, 2-(6-chloro-2-methyl-1H-imidazo[4,5-b]pyridin-1-yl)-6-{[4-(trifluoromethyl)phenyl]amino}pyridine-4-carbonitrile]: the EC50 was 0.001 to 0.01 µM.
As to `N#Cc1cc(Nc2ccc(C(F)(F)F)cc2)nc(-n2c(C3CC3)nc3ncc(F)cc32)c1` [compound 490, 2-(2-cyclopropyl-6-fluoro-1H-imidazo[4,5-b]pyridin-1-yl)-6-{[4-(trifluoromethyl)phenyl]amino}pyridine-4-carbonitrile], the EC50 lay within 0.01 to 0.1 µM.
Regarding `Cc1nc2ccc(N)cc2n1-c1cncc(Nc2ccc(C(F)(F)F)cc2)n1` [compound 285, 2-methyl-1-(6-{[4-(trifluoromethyl)phenyl]amino}pyrazin-2-yl)-1H-benzimidazol-6-amine], the EC50 was in the range of 0.01 to 0.1 µM.
Same read-out and setting: the figure for `FC(F)Oc1ccc(Nc2cncc(-n3c(C(F)(F)F)nc4ccccc43)n2)cc1` [compound 44, N-[4-(difluoromethoxy)phenyl]-6-[2-(trifluoromethyl)-1H-benzimidazol-1-yl]pyrazin-2-amine] is 0.01 to 0.1 µM.
On to `Cc1nc2ccccc2n1-c1cncc(Nc2ccc(C(F)F)c(F)c2)n1` [compound 508, N-[4-(difluoromethyl)-3-fluorophenyl]-6-(2-methyl-1H-benzimidazol-1-yl)pyrazin-2-amine], for which the EC50 was 0.01 to 0.1 µM.
On the same count and under the same terms, the figure for `COc1ccc(Nc2cc(-n3c(C)ccc3C)cc(-n3c(C)nc4ccccc43)n2)cc1` [compound 577, 4-(2,5-dimethyl-1H-pyrrol-1-yl)-N-(4-methoxyphenyl)-6-(2-methyl-1H-benzimidazol-1-yl)pyridin-2-amine] is 0.1 to 3 µM.
On the same count and under the same terms, the figure for `CCc1nc2ncc(Cl)cc2n1-c1cncc(Nc2ccc(OC(F)F)cc2)n1` [compound 544, 6-(6-chloro-2-ethyl-1H-imidazo[4,5-b]pyridin-1-yl)-N-[4-(difluoromethoxy)phenyl]pyrazin-2-amine] is less than 0.001 µM; for `N#Cc1cc(Nc2ccc(C(F)(F)F)cc2)nc(-c2c(C(F)(F)F)nc3ccc(F)cn23)c1` [compound 272, 2-[6-fluoro-2-(trifluoromethyl)imidazo[1,2-a]pyridin-3-yl]-6-{[4-(trifluoromethyl)phenyl]amino}pyridine-4-carbonitrile] it is 0.01 to 0.1 µM.
Still for that read-out and setting: for `COC1CCc2nc(C)c(-c3cncc(Nc4ccc(C(F)(F)F)cc4)n3)n2C1` (stereo not drawn) [compound 409, 6-(6-methoxy-2-methyl-5,6,7,8-tetrahydroimidazo[1,2-a]pyridin-3-yl)-N-[4-(trifluoromethyl)phenyl]pyrazin-2-amine] the value was 0.001 to 0.01 µM.
As for `Cc1nc2ncc(Cl)cc2n1-c1cc(C#N)cc(Nc2ccc(OC(F)F)cc2)n1` [compound 428, 2-(6-chloro-2-methyl-1H-imidazo[4,5-b]pyridin-1-yl)-6-{[4-(difluoromethoxy)phenyl]amino}pyridine-4-carbonitrile], the EC50 fell in the range of 0.001 to 0.01 µM.
Same read-out and setting: the figure for `Cc1nc2cc(F)c(F)cc2n1-c1cncc(Nc2ccc(Cl)c(F)c2)n1` [compound 294, N-(4-chloro-3-fluorophenyl)-6-(5,6-difluoro-2-methyl-1H-benzimidazol-1-yl)pyrazin-2-amine] is 0.1 to 3 µM; for `Cc1nc2cc(Cl)c(Cl)cc2n1-c1cncc(Nc2ccc(OC(F)(F)F)cc2)n1` [compound 192, 6-(5,6-dichloro-2-methyl-1H-benzimidazol-1-yl)-N-[4-(trifluoromethoxy)phenyl]pyrazin-2-amine] it is 0.01 to 0.1 µM.
Still for that read-out and setting: the figure for `Cc1nc2ccc(C(F)(F)F)cc2n1-c1cncc(Nc2ccc(C(F)(F)F)cc2)n1` [compound 340, 6-[2-methyl-6-(trifluoromethyl)-1H-benzimidazol-1-yl]-N-[4-(trifluoromethyl)phenyl]pyrazin-2-amine] is 0.1 to 3 µM; for `COc1ccc(Nc2cncc(-c3c(C)nc4ccc(F)cn34)n2)cc1` [compound 592, 6-(6-fluoro-2-methylimidazo[1,2-a]pyridin-3-yl)-N-(4-methoxyphenyl)pyrazin-2-amine] it is less than 0.001 µM.
Same read-out and setting: for `FC(F)(F)Oc1ccc(Nc2cncc(-c3c(C(F)(F)F)nn4ccccc34)n2)cc1` [compound 63, N-[4-(trifluoromethoxy)phenyl]-6-[2-(trifluoromethyl)pyrazolo[1,5-a]pyridin-3-yl]pyrazin-2-amine] the value was 0.01 to 0.1 µM.
Take `CC(N)c1ccc(Nc2cc(C#N)cc(-c3c(C(F)(F)F)nc4ccccn34)n2)cc1` (stereo not drawn) [Cpd 257, 2-(4-(1-aminoethyl)phenylamino)-6-(2-(trifluoromethyl)imidazo[1,2-a]pyridin-3-yl)isonicotinonitrile]: the EC50 lay in the range of 0.1 to 3 µM.
The same measure, in the same setting: the figure for `COc1cc(Nc2cc(C#N)cc(-c3c(C)nc4ccc(F)cn34)n2)ccc1F` [compound 314, 2-[(4-fluoro-3-methoxyphenyl)amino]-6-(6-fluoro-2-methylimidazo[1,2-a]pyridin-3-yl)pyridine-4-carbonitrile] is 0.1 to 3 µM; for `Cc1n[nH]c(C)c1-c1cncc(Nc2ccc(C(F)(F)F)cc2)n1` [compound 226, 6-(3,5-dimethyl-1H-pyrazol-4-yl)-N-[4-(trifluoromethyl)phenyl]pyrazin-2-amine] it is 0.1 to 3 µM; for `COc1ccc(Nc2cccc(-n3c(C)nc4ccc(F)cc43)n2)cc1` [Cpd 586, 6-(6-fluoro-2-methyl-1H-benzimidazol-1-yl)-N-(4-methoxyphenyl)pyridin-2-amine] it is 0.001 to 0.01 µM.
On to `COc1ccc2nc(C)c(-c3cc(C#N)cc(Nc4ccc(C(F)(F)F)cc4)n3)n2c1` [compound 379, 2-(6-methoxy-2-methylimidazo[1,2-a]pyridin-3-yl)-6-{[4-(trifluoromethyl)phenyl]amino}pyridine-4-carbonitrile], for which the EC50 lay in the range of 0.01 to 0.1 µM.

The assay is the same for the next values; noted with them: read-out: ELISA EC50 value for Bmi-1 protein, Table 1, Bmi-1 sandwich ELISA.
On to `Cc1c(-c2cncc(Nc3ccc(OC(F)F)cc3)n2)c(C(F)(F)F)nn1C` [compound 280, N-[4-(difluoromethoxy)phenyl]-6-[1,5-dimethyl-3-(trifluoromethyl)-1H-pyrazol-4-yl]pyrazin-2-amine], for which the EC50 lay in the range of 0.01 to 0.1 µM.
